The source of these data is patent US7384965B2, “Fused heterocyclic derivatives as PPAR modulators” (Eli Lilly and Company, priority 2003, dated 2008).

Where only a bound is given, the exact number is not on record here.

As a reminder, the melting point is the temperature of the solid-liquid transition. The compound `Cc1cc(SCc2cccc3nc(-c4ccc(C(F)(F)F)cc4)oc23)ccc1CCC(=O)O` [Example 69, 3-{2-Methyl-4-[2-(4-trifluoromethylphenyl)benzooxazol-7-ylmethylsulfanyl]phenyl}propionic Acid] gave a melting point of 155 to 157 °C. Next, `O=C(O)Cc1csc2cc(OCc3cccc4nc(-c5ccc(C(F)(F)F)cc5)oc34)ccc12` [Example 70, 6-[2-(4-Trifluoromethylphenyl)benzooxazol-7-ylmethoxy]benzo[b]thiophen-3-ylacetic Acid]: 215 to 216 °C; `O=C(O)Cc1csc2cc(SCc3cccc4nc(-c5ccc(C(F)(F)F)cc5)oc34)ccc12` [Example 71, 6-[2-(4-Trifluoromethylphenyl)benzooxazol-7-ylmethylsulfanyl]benzo[b]thiophen-3-ylacetic Acid]: 208 to 210 °C.

The compound `CCc1cc(SCc2cccc3nc(-c4ccc(C(F)(F)F)cc4)oc23)ccc1OCC(=O)O` [Example 72, 2-Ethyl-4-[2-(4-trifluoromethylphenyl)benzooxazol-7-ylmethylsulfanyl]phenoxyacetic Acid] showed a melting point of 170 to 173 °C. Compound `O=C(O)Cc1cccc(SCc2cccc3nc(-c4ccc(C(F)(F)F)cc4)oc23)c1` [Example 73, 3-[2-(4-Trifluoromethylphenyl)benzooxazol-7-ylmethylsulfanyl]phenylacetic Acid] showed a melting point of 147 to 149 °C. The figure for `Cc1cc(SCc2cccc3nc(-c4ccc(C(F)(F)F)cc4)oc23)ccc1OCC(=O)O` [Example 74, 2-Methyl-4-[2-(4-trifluoromethylphenyl)benzooxazol-7-ylmethylsulfanyl]phenoxyacetic Acid] is 172 to 174 °C.

`Cc1cc(SC(C)(C)c2cccc3nc(-c4ccc(C(F)(F)F)cc4)oc23)ccc1OCC(=O)O` [Example 75, 2-Methyl-4-{1-methyl-1-[2-(4-trifluoromethylphenyl)benzooxazol-7-yl]ethylsulfanyl}phenoxyacetic Acid] displayed a melting point of 131 to 133 °C.

In turn, `Cc1cc(SC(C)(C)c2cccc3nc(-c4ccc(C(F)(F)F)cc4)oc23)ccc1CCC(=O)O` [Example 76, 3-(2-Methyl-4-{1-methyl-1-[2-(4-trifluoromethylphenyl)benzooxazol-7-yl]ethylsulfanyl}phenyl)propionic Acid] had a melting point of 104 to 107 °C. The compound `CCc1cc(SC(C)(C)c2cccc3nc(-c4ccc(C(F)(F)F)cc4)oc23)ccc1OCC(=O)O` [Example 77, 2-Ethyl-4-{1-methyl-1-[2-(4-trifluoromethylphenyl)benzooxazol-7-yl]ethylsulfanyl}phenoxyacetic Acid] registered a melting point of 122 to 125 °C. `CC(C)(Sc1ccc2c(CC(=O)O)csc2c1)c1cccc2nc(-c3ccc(C(F)(F)F)cc3)oc12` [Example 78, 6-{1-Methyl-1-[2-(4-trifluoromethylphenyl)benzooxazol-7-yl]ethylsulfanyl}benzo[b]thiophen-3-ylacetic Acid] came in with a melting point of 110 to 113 °C. For the compound `Cc1cc(SCc2cccc3[nH]c(-c4ccc(C(F)(F)F)cc4)nc23)ccc1OCC(=O)O` [Example 85, 2-Methyl-4-[2-(4-trifluoromethylphenyl)-1H-benzoimidazol-4-ylmethylsulfanyl]phenoxyacetic Acid], the melting point was 238 to 240 °C (dec.).

In turn, `Cc1cc(SCc2cccc3[nH]c(-c4ccc(C(F)(F)F)cc4)nc23)ccc1CCC(=O)O` [Example 86, 3-{2-Methyl-4-[2-(4-trifluoromethylphenyl)-1H-benzoimidazol-4-ylmethylsulfanyl]phenyl}propionic Acid] came in with a melting point of 214 to 216 °C.

With `CCc1cc(SCc2cccc3[nH]c(-c4ccc(C(F)(F)F)cc4)nc23)ccc1OCC(=O)O` [Example 87, 2-Ethyl-4-[2-(4-trifluoromethylphenyl)-1H-benzoimidazol-4-ylmethylsulfanyl]phenoxyacetic Acid], the melting point is 223 °C (dec.).

Consider `O=C(O)Cc1cccc(SCc2cccc3[nH]c(-c4ccc(C(F)(F)F)cc4)nc23)c1` [Example 88, 3-[2-(4-Trifluoromethylphenyl)-1H-benzoimidazol-4-ylmethylsulfanyl]phenylacetic Acid], for which the melting point is 180 to 183 °C.

In turn, `Cc1cc(SCc2cccc3c2nc(-c2ccc(C(F)(F)F)cc2)n3C)ccc1OCC(=O)O` [Example 89, 2-Methyl-4-[1-methyl-2-(4-trifluoromethylphenyl)-1H-benzoimidazol-4-ylmethylsulfanyl]phenoxyacetic Acid] displayed a melting point of 192 to 194 °C. In turn, `Cc1cc(SCc2cccc3c2nc(-c2ccc(C(F)(F)F)cc2)n3C)ccc1CCC(=O)O` [Example 90, 3-{2-Methyl-4-[1-methyl-2-(4-trifluoromethylphenyl)-1H-benzoimidazol-4-ylmethylsulfanyl]phenyl}propionic Acid] registered a melting point of 168 to 170 °C. The compound `CCc1cc(SCc2cccc3c2nc(-c2ccc(C(F)(F)F)cc2)n3C)ccc1OCC(=O)O` [Example 91, 2-Ethyl-4-[1-methyl-2-(4-trifluoromethylphenyl)-1H-benzoimidazol-4-ylmethylsulfanyl]phenoxyacetic Acid] displayed a melting point of 178 to 180 °C.

`Cn1c(-c2ccc(C(F)(F)F)cc2)nc2c(CSc3cccc(CC(=O)O)c3)cccc21` [Example 92, 3-[1-Methyl-2-(4-trifluoromethylphenyl)-1H-benzoimidazol-4-ylmethylsulfanyl]phenylacetic Acid] had a melting point of 178 to 180 °C. The figure for `Cc1cc(SCc2cccc3[nH]c(-c4ccc(C(F)(F)F)cc4)cc23)ccc1OCC(=O)O` [Example 93, 2-Methyl-4-[2-(4-trifluoromethylphenyl)-1H-indol-4-ylmethylsulfanyl]phenoxyacetic Acid] is 85 to 88 °C.

In turn, `CCc1cc(SCc2cccc3[nH]c(-c4ccc(C(F)(F)F)cc4)cc23)ccc1OCC(=O)O` [Example 94, 2-Ethyl-4-[2-(4-trifluoromethylphenyl)-1H-indol-4-ylmethylsulfanyl]phenoxyacetic Acid] displayed a melting point of 174 to 176 °C. With `Cc1cc(SCc2ccnc3oc(-c4ccc(C(F)(F)F)cc4)nc23)ccc1OCC(=O)O` [Example 95, 2-Methyl-4-[2-(4-trifluoromethylphenyl)oxazolo[5,4-b]pyridine-7-ylmethylsulfanyl]phenoxyacetic Acid], the melting point was in the range of 154 to 157 °C.

As for `Cc1cc(SCc2ccnc3oc(-c4ccc(C(F)(F)F)cc4)nc23)ccc1CCC(=O)O` [Example 96, 3-{2-Methyl-4-[2-(4-trifluoromethylphenyl)oxazolo[5,4-b]pyridin-7-ylmethylsulfanyl]phenyl}propionic Acid], the melting point was > 260 °C (dec.). Regarding `CCc1cc(SCc2ccnc3oc(-c4ccc(C(F)(F)F)cc4)nc23)ccc1OCC(=O)O` [Example 97, 2-Ethyl-4-[2-(4-trifluoromethylphenyl)oxazolo[5,4-b]pyridin-7-ylmethylsulfanyl]phenoxyacetic Acid], the melting point was in the range of 59 to 62 °C. Next, `O=C(O)Cc1csc2cc(SCc3ccnc4oc(-c5ccc(C(F)(F)F)cc5)nc34)ccc12` [Example 98, 6-[2-(4-Trifluoromethylphenyl)oxazolo[5,4-b]pyridine-7-ylmethylsulfanyl]benzo[b]thiophen-3-ylacetic Acid]: 203 to 205 °C. The figure for `O=C(O)Cc1cccc(SCc2ccnc3oc(-c4ccc(C(F)(F)F)cc4)nc23)c1` [Example 99, 3-[2-(4-Trifluoromethylphenyl)oxazolo[5,4-b]pyridin-7-ylmethylsulfanyl]phenylacetic Acid] is 164 to 166 °C; for `Cc1cc(SCc2ccnc3sc(-c4ccc(C(F)(F)F)cc4)nc23)ccc1OCC(=O)O` [Example 100, 2-Methyl-4-[2-(4-trifluoromethylphenyl)thiazolo[5,4-b]pyridine-7-ylmethylsulfanyl]phenoxyacetic Acid] it is 82 to 85 °C. Next, `Cc1cc(SCc2ccnc3sc(-c4ccc(C(F)(F)F)cc4)nc23)ccc1CCC(=O)O` [Example 101, 3-{2-Methyl-4-[2-(4-trifluoromethylphenyl)thiazolo[5,4-b]pyridin-7-ylmethylsulfanyl]phenyl}propionic Acid]: 65 to 70 °C. `CCc1cc(SCc2ccnc3sc(-c4ccc(C(F)(F)F)cc4)nc23)ccc1OCC(=O)O` [Example 102, 2-Ethyl-4-[2-(4-trifluoromethylphenyl)thiazolo[5,4-b]pyridin-7-ylmethylsulfanyl]phenoxyacetic Acid] showed a melting point of 176 to 178 °C. The figure for `Cc1cc(SCc2ccnc3[nH]c(-c4ccc(C(F)(F)F)cc4)nc23)ccc1OCC(=O)O` [Example 103, 2-Methyl-4-[2-(4-trifluoromethylphenyl)-3H-imidazo[4,5-b]pyridin-7-ylmethylsulfanyl]phenoxyacetic Acid] is 239 to 241 °C; for `Cc1cc(SCc2ccnc3[nH]c(-c4ccc(C(F)(F)F)cc4)nc23)ccc1CCC(=O)O` [Example 104, 3-{2-Methyl-4-[2-(4-trifluoromethylphenyl)-3H-imidazo[4,5-b]pyridin-7-ylmethylsulfanyl]phenyl}propionic Acid] it is 180 to 182 °C; for `CCc1cc(SCc2ccnc3[nH]c(-c4ccc(C(F)(F)F)cc4)nc23)ccc1OCC(=O)O` [Example 105, 2-Ethyl-4-[2-(4-trifluoromethylphenyl)-3H-imidazo[4,5-b]pyridin-7-ylmethylsulfanyl]phenoxyacetic Acid] it is 188 to 190 °C. `O=C(O)Cc1cccc(SCc2ccnc3[nH]c(-c4ccc(C(F)(F)F)cc4)nc23)c1` [Example 107] had a melting point of 213 to 215 °C.

`Cc1cc(SCc2ccnc3c2nc(-c2ccc(C(F)(F)F)cc2)n3C)ccc1CCC(=O)O` [Example 108, 3-{2-Methyl-4-[3-methyl-2-(4-trifluoromethylphenyl)-3H-imidazo[4,5-b]pyridin-7-ylmethylsulfanyl]phenyl}propionic Acid] showed a melting point of 89 to 91 °C. The compound `CCc1cc(SCc2ccnc3c2nc(-c2ccc(C(F)(F)F)cc2)n3C)ccc1OCC(=O)O` [Example 109, 2-Ethyl-4-[3-methyl-2-(4-trifluoromethylphenyl)-3H-imidazo[4,5-b]pyridin-7-ylmethylsulfanyl]phenoxyacetic Acid] registered a melting point of 118 to 120 °C.
